# Assay results taken from patent US20120138290A1, “METHODS TO STIMULATE BIOGENIC METHANE PRODUCTION FROM HYDROCARBON-BEARING FORMATIONS” (SYNTHETIC GENOMICS, INC., priority 2010, published 2012).
# Several values for one entry are separate records, joined by “and”; a condition that tells them apart may be missing. Equal values may be shown once. Read-outs that look alike come from different tables or passages of the source.
# Test system: functional microbial subcommunity (inoculum 2L-245 from upflow reactor)
# Experiment: Stimulation of methane production: batch cultures with additive/stimulant, with or without coal, headspace methane by gas chromatography
# Type: cell-based
# Experimental: The availability of an inoculum of a functional microbial subcommunity capable of producing methane from coal in vitro prompted laboratory experiments where various stimulants were tested for their effect on methane production. […] The experiments were conducted at three different levels of additives (0.5×, 1× and 2×): additives (stimulants) were added in the following three concentrations. […] DMY media: DM media composition in milli-Q water is made as described above with the addition of 0.5 g/L yeast extract. DMSC media: DM media in milli-Q water is made as described above with the addition of 100 g/L sterile, anaerobic, sub-bituminous coal from the San Juan Basin. DMSCY media: DM media in milli-Q water is made as described above with the addition of 100 g/L sterile, anaerobic, sub-bituminous coal from the San Juan Basin and 0.5 g/L yeast extract. The coal used in these experiments originated from the San Juan Basin (BHP Billiton, Tex.). […] Each stimulant was tested in the presence or absence of coal. The experiments were conducted at three different concentrations of additives (0.5× (low), 1× (medium), and 2× (high)) as described above. Each sample type was conducted in 4 replicates. […] Control sample types were media alone, media plus coal, media plus yeast extract and media plus coal and yeast extract. At each time point, headspace measurements were taken using gas chromatography (microGC […], Agilent Technologies, Inc.). […] Each experiment was performed in quadruplicate. Methane at time 0 was assumed to be 0%.
# [1] = DMSCY (coal), 2.0 mM KCl, week 1
# [2] = DMSCY (coal), 2.0 mM KCl, week 3
# [3] = DMSCY (coal), 2.0 mM KCl, week 5
# [4] = DMSCY (coal), 4.0 mM KCl, week 1
# [5] = DMSCY (coal), 4.0 mM KCl, week 3
# [6] = DMSCY (coal), 4.0 mM KCl, week 5
# [7] = DMSCY (coal), 8.0 mM KCl, week 1
# [8] = DMSCY (coal), 8.0 mM KCl, week 3
# [9] = DMSCY (coal), 8.0 mM KCl, week 5
# [10] = DMY (no coal), 2.0 mM KCl, week 1
# [11] = DMY (no coal), 2.0 mM KCl, week 3
# [12] = DMY (no coal), 2.0 mM KCl, week 5
# [13] = DMY (no coal), 4.0 mM KCl, week 1
# [14] = DMY (no coal), 4.0 mM KCl, week 3
# [15] = DMY (no coal), 4.0 mM KCl, week 5
# [16] = DMY (no coal), 8.0 mM KCl, week 1
# [17] = DMY (no coal), 8.0 mM KCl, week 3
# [18] = DMY (no coal), 8.0 mM KCl, week 5
# [19] = DMSCY (coal), 5 mM NH4Cl, week 1
# [20] = DMSCY (coal), 5 mM NH4Cl, week 3
# [21] = DMSCY (coal), 5 mM NH4Cl, week 5
# [22] = DMSCY (coal), 10 mM NH4Cl, week 1
# [23] = DMSCY (coal), 10 mM NH4Cl, week 3
# [24] = DMSCY (coal), 10 mM NH4Cl, week 5
# [25] = DMSCY (coal), 20 mM NH4Cl, week 1
# [26] = DMSCY (coal), 20 mM NH4Cl, week 5
# [27] = DMY (no coal), 5 mM NH4Cl, week 1
# [28] = DMY (no coal), 5 mM NH4Cl, week 3
# [29] = DMY (no coal), 5 mM NH4Cl, week 5
# [30] = DMY (no coal), 10 mM NH4Cl, week 1
# [31] = DMY (no coal), 20 mM NH4Cl, week 1
# [32] = DMY (no coal), 20 mM NH4Cl, week 3
# [33] = DMY (no coal), 20 mM NH4Cl, week 5
# [34] = DMSCY (coal), 5.0 μM Na2MoO4, week 1
# [35] = DMSCY (coal), 5.0 μM Na2MoO4, week 3
# [36] = DMSCY (coal), 5.0 μM Na2MoO4, week 5
# [37] = DMSCY (coal), 10 μM Na2MoO4, week 1
# [38] = DMSCY (coal), 10 μM Na2MoO4, week 3
# [39] = DMSCY (coal), 10 μM Na2MoO4, week 5
# [40] = DMY (no coal), 5.0 μM Na2MoO4, week 1
# [41] = DMY (no coal), 5.0 μM Na2MoO4, week 3
# [42] = DMY (no coal), 5.0 μM Na2MoO4, week 5
# [43] = DMY (no coal), 10 μM Na2MoO4, week 1
# [44] = DMY (no coal), 10 μM Na2MoO4, week 3
# [45] = DMY (no coal), 10 μM Na2MoO4, week 5
smiles,measurement,setting,value
"[Cl-].[K+] [KCl, potassium chloride]",methane production (Average),[1],0.34
same,methane production (RepA-Rep D),[1],0.35 and 0.30 and 0.32 and 0.39
same,methane production (Average),[2],1.14
same,methane production (RepA-Rep D),[2],1.12 and 1.25 and 1.04 and 1.16
same,methane production (Average),[3],1.39
same,methane production (RepA-Rep D),[3],1.32 and 1.49 and 1.30 and 1.47
same,methane production (Average),[4],0.4
same,methane production (RepA-Rep D),[4],0.44 and 0.43 and 0.46
same,methane production (Average),[5],1.50
same,methane production (RepA-Rep D),[5],1.35 and 1.46 and 1.60 and 1.57
same,methane production (Average),[6],1.69
same,methane production (RepA-Rep D),[6],1.59 and 1.87 and 1.70
same,methane production (Average),[7],0.3936
same,methane production (RepA-Rep D),[7],0.3871 and 0.3364 and 0.4219 and 0.429
same,methane production (Average),[8],1.327
same,methane production (RepA-Rep D),[8],1.346 and 1.301 and 1.36 and 1.304
same,methane production (Average),[9],1.562
same,methane production (RepA-Rep D),[9],1.564 and 1.478 and 1.557 and 1.649
same,methane production (Average),[10],0.30
same,methane production (RepA-Rep D),[10],0.29 and 0.30 and 0.32
same,methane production (Average),[11],0.81
same,methane production (RepA-Rep D),[11],0.99 and 0.79 and 0.78 and 0.70
same,methane production (Average),[12],0.77
same,methane production (RepA-Rep D),[12],0.78 and 0.75 and 0.79
same,methane production (Average),[13],0.23
same,methane production (RepA-Rep D),[13],0.23 and 0.22 and 0.24
same,methane production (Average),[14],0.26
same,methane production (RepA-Rep D),[14],0.24 and 0.26 and 0.29
same,methane production (Average),[15],0.29
same,methane production (RepA-Rep D),[15],0.23 and 0.26 and 0.40
same,methane production (Average),[16],0.2015
same,methane production (RepA-Rep D),[16],0.2005 and 0.2037 and 0.195 and 0.2068
same,methane production (Average),[17],0.2178
same,methane production (RepA-Rep D),[17],0.2211 and 0.2119 and 0.2206 and 0.2177
same,methane production (Average),[18],0.2151
same,methane production (RepA-Rep D),[18],0.2177 and 0.2082 and 0.2231 and 0.2112
same,effect on methanogenesis,"absence of coal (DMY), >2 mM KCl",greatly decreased methanogenesis
same,trend in methane production,"week 5, KCl-containing samples",decreasing trend
"Cl.N [NH4Cl, ammonium chloride]",methane production (Average),[19],0.31
same,methane production (RepA-Rep D),[19],0.35 and 0.27 and 0.31 and 0.30
same,methane production (Average),[20],1.11
same,methane production (RepA-Rep D),[20],1.24 and 1.03 and 1.13
same,methane production (Average),[21],1.50
same,methane production (RepA-Rep D),[21],1.67 and 1.41 and 1.48 and 1.43
same,methane production (Average),[22],0.25
same,methane production (RepA-Rep D),[22],0.25 and 0.22 and 0.28
same,methane production (Average),[23],1.30
same,methane production (RepA-Rep D),[23],1.22 and 1.43 and 1.41 and 1.14
same,methane production (Average),[24],2.22
same,methane production (RepA-Rep D),[24],1.98 and 2.70 and 2.67 and 1.54
same,methane production (Average),[25],0.22
same,methane production (RepA-Rep D),[25],0.24 and 0.22 and 0.21
same,methane production (Average),"DMSCY (coal), 20 mM NH4Cl, week 3",1.18
same,methane production (Average),[26],1.46
same,methane production (RepA-Rep D),[26],1.63 and 1.48 and 1.37 and 1.36
same,methane production (Average),[27],0.26
same,methane production (RepA-Rep D),[27],0.26 and 0.27
same,methane production (Average),[28],0.71
same,methane production (RepA-Rep D),[28],0.74 and 0.68 and 0.67
same,methane production (Average),[29],0.66
same,methane production (RepA-Rep D),[29],0.69 and 0.65 and 0.62
same,methane production (Average),[30],0.20
same,methane production (RepA-Rep D),[30],0.22 and 0.21 and 0.15
same,methane production (Average),"DMY (no coal), 10 mM NH4Cl, week 3",0.57
same,methane production (Average),"DMY (no coal), 10 mM NH4Cl, week 5",0.58
same,methane production (Average),[31],0.22
same,methane production (RepA-Rep D),[31],0.23 and 0.22 and 0.21
same,methane production (Average),[32],0.77
same,methane production (RepA-Rep D),[32],0.80 and 0.78 and 0.76
same,methane production (Average),[33],0.78
same,methane production (RepA-Rep D),[33],0.80 and 0.79 and 0.76 and 0.77
same,effect on the production of methane,"intermediate concentration of the stimulant (FIGS. 1A, 1B, 2A)",statistically significant positive effect
same,dependence of methane production on coal,with or without coal,only observed in presence of coal
"[Na+].[Na+].[O]=[Mo](=[O])([O-])[O-] [Na2MoO4, sodium molybdic]",methane production (Average),[34],0.34
same,methane production (RepA-Rep D),[34],0.39 and 0.28 and 0.31
same,methane production (Average),[35],1.19
same,methane production (RepA-Rep D),[35],1.13 and 1.09 and 1.14 and 1.40
same,methane production (Average),[36],1.41
same,methane production (RepA-Rep D),[36],1.39 and 1.31 and 1.29 and 1.63
same,methane production (Average),[37],0.44
same,methane production (RepA-Rep D),[37],0.43 and 0.47 and 0.44
same,methane production (Average),[38],1.10
same,methane production (RepA-Rep D),[38],1.03 and 1.15 and 1.14 and 1.07
same,methane production (Average),[39],1.13
same,methane production (RepA-Rep D),[39],1.11 and 1.14 and 1.15 and 1.13
same,methane production (Average),[40],0.29
same,methane production (RepA-Rep D),[40],0.25 and 0.27 and 0.30 and 0.33
same,methane production (Average),[41],0.83
same,methane production (RepA-Rep D),[41],0.77 and 0.85 and 0.79 and 0.91
same,methane production (Average),[42],0.79
same,methane production (RepA-Rep D),[42],0.76 and 0.78 and 0.74 and 0.87
same,methane production (Average),[43],0.29
same,methane production (RepA-Rep D),[43],0.30 and 0.26 and 0.32
same,methane production (Average),[44],0.82
same,methane production (RepA-Rep D),[44],0.85 and 0.71 and 0.81 and 0.90
same,methane production (Average),[45],0.77
same,methane production (RepA-Rep D),[45],0.77 and 0.72 and 0.74 and 0.83
same,correlation of methane production with molybdate added to the cultures,FIG. 3B,negative correlation
same,difference of effects with or without coal,"molybdate, P=0.063",not statistically significantly different
"O=S([O-])([O-])=S.[Na+].[Na+] [Na2S2O3, sodium thiosulfate]",dependence of methane production on coal,,only observed in the presence of coal
same,effect on the production of methane,,statistically significant positive effect
